Data: patent US20240424477A1, “SYSTEM AND DEVICES FOR REMOVAL OF CONTAMINATES” (priority 2021, published 2024)

Assays:
[1] = conventional drinking water treatment, literature; cited from earlier work
[2] = tested on: MO protein; assay: 19F NMR protein-ligand binding (peak height ratio B); set-up: species or system Moringa oleifera; settings: PFAS 50 mg/L
Protocol: ^19F NMR. ^19F NMR measurements were taken on a Bruker AVANCE III 500 NMR. 3,000 scans were run for each sample with a 1 second relaxation delay. TFMAA was added to each sample as an internal standard. 90% H2O and 10% D20 were used for instrument lock and calibration. PFAS concentrations remained constant at 50 mg/L. […] of sample was used for each run. ^19F NMR spectra were obtained with a spectral width 113636.36 Hz and spectral frequency 470.57 MHz.
Spectrum were analyzed via MestreNova software for phase correction and baseline correction. Peak picking was completed automatically by the software. […] Intensities were normalized by TFMAA peak area at approximately −64.9 ppm. NMR data is included in the Supporting Information. The NMR peak height ratio, B, can be used to determine the relative ranking of binding affinities between protein-ligand complexes. B was calculated using Equation (1)
Where lb is the sum of ligand NMR heights in the presence of protein and lh is the sum of free ligand NMR heights.
^19F NMR. NMR can be used to study protein-ligand interactions by examining changes in peak height, peak width, and chemical shifts. A decrease in peak height indicates the formation of a protein-ligand complex. Previous literature has used ^19F NMR to look at PFAS binding to albumin proteins. In this work, PFAS (ligand) concentrations remain constant while MO protein concentrations were varied.

[3] = when protein concentrations increase

Compound: [Cl][Fe]([Cl])[Cl] [FeCl3, ferric chloride]
- removal of PFOA and PFOS by coagulation [1]: about 20%

Compound: O=S(=O)(O)C(F)(F)C(F)(F)C(F)(F)C(F)(F)C(F)(F)C(F)(F)C(F)(F)C(F)(F)F [PFOS, perfluorooctanesulfonic acid]
- binding affinity to MO protein (NMR peak height ratio, B) ([2]; lower protein concentrations): stronger affinity than MO-PFOA
- binding affinity to MO protein (NMR peak height ratio, B) [2, 3]: similar

Compound: O=C(O)C(F)(F)C(F)(F)C(F)(F)C(F)(F)C(F)(F)C(F)(F)C(F)(F)F [PFOA, perfluorooctanoic acid]
- binding affinity to MO protein (NMR peak height ratio, B) [2, 3]: similar

Compound: alum
- removal of PFOA and PFOS by coagulation [1]: about 20%
